Laboratory results: article PMC7104226, “Antiepileptic Drug Carbamazepine Binds to a Novel Pocket on the Wnt Receptor Frizzled-8” (Journal of Medicinal Chemistry, 2020)

Target: T1, FZD8 (frizzled-8) cysteine-rich domain, FZD8CRD (Mus musculus, UniProt Q61091)
T1 construct: Extracellular CRD A28-R153, pHL-Avi3, BirA-biotinylated, secreted from HEK293T, immobilized on streptavidin SPR chip
T1 sequence (Q61091 28-153): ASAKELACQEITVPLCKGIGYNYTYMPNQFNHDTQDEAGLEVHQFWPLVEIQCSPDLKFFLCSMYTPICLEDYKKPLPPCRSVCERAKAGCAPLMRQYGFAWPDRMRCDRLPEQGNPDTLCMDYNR
Assay: crystal structure at […] Å (N49E/N152E construct); SPR Kd on biotinylated FZD8CRD (A28-R153)
Format: binding

NC(=O)N1c2ccccc2C=Cc2ccccc21 [compound 79, 5H-dibenzo[b,f]azepine-5-carboxamide]
Kd: 17 µM
